Results on 2 compounds are retold here after patent publication US11434222B2, “MAGL inhibitors” (H. LUNDBECK A/S, priority 2020, dated 2022).

One series concerns the target T1, MAGL (Mus musculus, UniProt O35678).
T1 construct: brain proteomes were prepared and analyzed according to previously established methods; from tissue; host or cells: brain of wild-type C57Bl/6J mice
T1 sequence (O35678 1-303): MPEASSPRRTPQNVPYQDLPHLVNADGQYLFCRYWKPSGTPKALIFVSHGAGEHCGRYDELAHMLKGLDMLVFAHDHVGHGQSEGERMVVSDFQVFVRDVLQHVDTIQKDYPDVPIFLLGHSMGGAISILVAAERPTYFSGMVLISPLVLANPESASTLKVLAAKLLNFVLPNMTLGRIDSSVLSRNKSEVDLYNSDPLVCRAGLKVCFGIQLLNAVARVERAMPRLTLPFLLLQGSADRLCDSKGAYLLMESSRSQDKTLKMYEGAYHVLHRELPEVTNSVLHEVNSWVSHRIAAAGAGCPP
Put plainly: In vivo MAGL inhibition in mouse brain proteomes after oral gavage. As to conditions: 5 mg/kg oral gavage, 4 h after administration, read-out: MAGL % inh. 5 mg/kg (mouse). The protocol:
Inhibitors were administered to wild-type C57B1/6J by oral gavage in a vehicle of polyethylene glycol. Each animal was sacrificed 4 h following administration and brain proteomes were prepared and analyzed according to previously established methods (See Niphakis, M. J., et al. (2011) ACS Chem. Neurosci. and Long, J. Z., et al. Nat. Chem. Biol. 5:37-44).

Series [1] deals with tonic hind limb extensor seizure (MEST). The series is described as follows: Maximal electroshock seizure threshold (MEST) model in the rat. The series is classed as in vivo. As to conditions: 10 mg/kg p.o., 240 min pre-treatment, FIG. 3 and FIG. 4. The protocol: In the MEST model, a low-intensity electrical current of high frequency and short duration is applied to induce tonic convulsions.
Animals were randomly assigned to vehicle, compound treatment or Lamotrigine dose groups. Animals were dosed at 5 mL/kg according to treatment groups (n=12 or 16/group), with either vehicle (0.5% MC) p.o. for Example 6, vehicle (10% HP-b-CD) for Example 8, test compound at 10 mg/kg p.o. 240 min pre-treatment time, or Lamotrigine p.o. 360 min pre-treatment time.
Rats were individually assessed for production of a tonic hind limb extensor seizure following a single corneally delivered electroshock of 0.3 second duration, using an ‘up and down method’ of shock titration (Kimball A W et al., 1957). Thus, the first rat within a treatment group was given a shock at the expected or estimated CC50 current (current producing tonic hind limb extensor seizures in 50% of animals). […] This procedure was continued for all rats within a treatment group. Induction of seizure was measured as an all-or-nothing effect scored as either present (+) or absent (0) for each animal. […]
Significant differences between drug-treated animals and controls were assessed according to Litchfield and Wilcoxon (1949) or One-Way ANOVA followed by Dunnett's multiple comparisons test.
(In the maximal electroshock model the usual endpoint is tonic extension of the hind limbs.)

The nature of series [2]: Rat Kp, brain disposition after oral gavage. Format: in vivo. The following applies: for Total plasma concentration / Total blood concentration / Total brain concentration: 5 mg/kg oral gavage; for Total plasma concentration / Kp at 4 h / Kp uu at 4 h: 4 h; for Total plasma concentration: calculated from total blood concentration using blood to plasma ratio; for Total blood concentration / Total brain concentration: 4 h post dosing, mean n = 3; for Kp at 4 h / Kp uu at 4 h: male, Sprague-Dawley, po, 5 mg/kg p.o.; for Kp at 4 h: total brain concentration:total plasma concentration ratio; for Kp uu at 4 h: unbound brain concentration:unbound plasma concentration ratio. The protocol: (§1) Brain disposition was evaluated in male Sprague-Dawley rats (n=3, standard body weight). Briefly, test compound was formulated as a simple suspension, in 0.5% HPMC in water, then administered by oral gavage (5 mg/kg, 5 mL/kg). Four hours post dosing, rats were sacrificed, and terminal blood and brain samples were taken. Blood was obtained via cardiac puncture (0.1 mL) and was added into 0.4 mL CH3CN for precipitation immediately. The samples were stored at −75+/−15° C. prior to analysis. Brain tissue samples were collected after animals were fully exsanguinated, and the tissues were washed with cold saline quickly. After sectioning, brain sections were immediately frozen in liquid nitrogen and stored at −75+/−15° C. prior to analysis. Blood and brain samples were analyzed by LC/MS/MS using an optimized analytical method. Concentrations of test compound in blood and brain were quantified against matrix matched calibration standards. The total blood, plasma, and brain concentration data are presented in Table 2 alongside the calculated brain Kp (total brain concentration:total plasma concentration ratio), the calculated brain kp,uu (unbound brain concentration:unbound plasma concentration ratio), the free fractions in rat plasma and brain, and the in vitro rat blood to plasma distribution profile. The total plasma concentration data were calculated from the total blood concentration data using rat blood to plasma ratio which was measured in vitro (1 μM test compound). For kp,uu determination, the free fraction in rat plasma and brain homogenate were measured in vitro by standard equilibrium dialysis (1 μM test compound and 6 h equilibration against buffer pH 7.4; for rat plasma analysis, 100 mM stock solution of diisopropyl fluorophosphate was added to the pre-warmed rat plasma prior to adding test article).

Series [3] can be described thus: In vitro rat blood to plasma ratio. Format: in vitro ADME. The following applies: 1 μM test compound. The protocol: as §1
Series [4] is described as follows: Kinetic solubility in PBS. The series is classed as physicochemical. The following applies: aqueous buffer, kinetic from dmso stock. The procedure, abridged:
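Solubility measured in PBS at pH 2.0 and pH 7.4, in duplicate, starting from 10 mM DMSO stock; shaken 2 h at RT at 1,100 RPM. Filtrate diluted and quantified by LC-MS/MS (positive MRM) against a DMSO standard of known concentration.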

Series [5] is described as follows: Thermodynamic solubility in PBS. As to conditions: aqueous buffer, thermodynamic from solid; PBS pH 7.4; 24 hours at RT. The series is classed as physicochemical. The protocol:
The thermodynamic solubility of test article was determined in PBS at pH 7.4 in duplicate. The test article (1.5 mg) in PBS was incubated for 24 hours at RT with shaking at 1100 rpm. Sample was then filtered using a vacuum manifold, diluted, and analyzed by LC-MS/MS. Chromatographic conditions: Phenomenex Synergi 4μ Hydro-PR 80A column (2.0×30 mm) coupled with pre-guard column; mobile phase=0.1% formic acid in acetonitrile and 0.1% formic acid in water; flowrate=0.65 mL/min; column temperature=40 degrees C.; injection volume: 10 μL.
Mobile phase: 0.1% formic acid in acetonitrile (A) and 0.1% formic acid in water (B)
Mass conditions: Turbo spray ion source; ESI ionization model; MRM scan type; Collison gas=6 L/min; Curtain gas=30 L/min; Nebulize gas=50 L/min; Auxiliary gas=50 L/min; Temperature=500 degrees C.; Ion spray voltage=+5500 v (positive MRM).
The filtered solution was analyzed and quantified against a standard of known concentration in DMSO using UPLC coupled with mass spectral peak identification and quantitation. Solubility values of the test articles were calculated using Microsoft Excel as follows (DF is the dilution factor): […]

The mark [6] stands for this setting: PBS pH 2.0, RT, read-out: pH 2 Solubility (kinetic).
[7] abbreviates: PBS pH 7.4, RT, read-out: pH 7.4 Solubility (kinetic).

Structures are written as SMILES. Like-named read-outs stand apart in the source and are kept apart here.

For orientation: Kp means the ratio of the level in a tissue or fluid to that in plasma or blood. In general, kinetic solubility refers to the concentration staying in solution when a stock, usually in DMSO, is diluted into the medium. A word on the thermodynamic solubility: it is the concentration in solution at equilibrium with solid. Consider `O=C(Nc1cccnn1)[C@H]1CC12CCN(C(=O)OC(C(F)(F)F)C(F)(F)F)CC2` [Example 6, 1,1,1,3,3,3-hexafluoropropan-2-yl (S)-1-(pyridazin-3-ylcarbamoyl)-6-azaspiro[2.5]octane-6-carboxylate], for which, on MAGL, the inhibition at 5 mg/kg came out at 100%. For the same compound, the “anticonvulsant activity in the MEST (seizure threshold CC50)” value in series [1] is reported as “anticonvulsant activity”. For the same compound, in series [2], the Total plasma concentration was 0.576 µM, the Total blood concentration is 0.415 µM, the Total brain concentration turned out to be 1.78 µM and the Kp at 4 h stood at 3.09. Further, the Kp uu at 4 h in series [2] turned out to be 2.25. The blood plasma ratio at 1 μM in series [3] stood at 0.72. Besides, the solubility (kinetic) at 2 h in series [4] (setting [6]) worked out at 240 µM. Moreover, the kinetic solubility at 2 h in series [4] (setting [7]) came to 106 µM. Besides, in series [5], the solubility (thermodynamic) at 24 h amounted to 71.5 µg/mL.
On to `O=C(NC1CCOCC1)[C@H]1CC12CCN(C(=O)OC(C(F)(F)F)C(F)(F)F)CC2` [Example 8, 1,1,1,3,3,3-hexafluoropropan-2-yl (S)-1-[(oxan-4-yl)carbamoyl]-6-azaspiro[2.5]octane-6-carboxylate], for which the inhibition at 5 mg/kg at MAGL came to 100%. Besides, in series [1], the “anticonvulsant activity in the MEST (seizure threshold CC50)” value is listed as “anticonvulsant activity”. Moreover, in series [2], the Total plasma concentration was 0.124 µM, the Total blood concentration was 0.119 µM, the Total brain concentration was 0.255 µM and the Kp at 4 h is 2.06. In series [2], the Kp uu at 4 h is 0.801. Also, the blood plasma ratio at 1 μM in series [3] stood at 0.96. Moreover, the solubility (kinetic) at 2 h in series [4] (setting [6]) was found to be 308 µM. Moreover, the kinetic solubility at 2 h in series [4] (setting [7]) worked out at 256 µM. Besides, the solubility (thermodynamic) at 24 h in series [5] was 606 µg/mL.
